Data on 31 compounds can be found in patent publication US9586951B2 (FUJIFILM Corporation, priority 2013, dated 2017).

SMILES strings stand for the structures. Bounds are passed on as bounds.

T1 sequence (Q13315 whole entry): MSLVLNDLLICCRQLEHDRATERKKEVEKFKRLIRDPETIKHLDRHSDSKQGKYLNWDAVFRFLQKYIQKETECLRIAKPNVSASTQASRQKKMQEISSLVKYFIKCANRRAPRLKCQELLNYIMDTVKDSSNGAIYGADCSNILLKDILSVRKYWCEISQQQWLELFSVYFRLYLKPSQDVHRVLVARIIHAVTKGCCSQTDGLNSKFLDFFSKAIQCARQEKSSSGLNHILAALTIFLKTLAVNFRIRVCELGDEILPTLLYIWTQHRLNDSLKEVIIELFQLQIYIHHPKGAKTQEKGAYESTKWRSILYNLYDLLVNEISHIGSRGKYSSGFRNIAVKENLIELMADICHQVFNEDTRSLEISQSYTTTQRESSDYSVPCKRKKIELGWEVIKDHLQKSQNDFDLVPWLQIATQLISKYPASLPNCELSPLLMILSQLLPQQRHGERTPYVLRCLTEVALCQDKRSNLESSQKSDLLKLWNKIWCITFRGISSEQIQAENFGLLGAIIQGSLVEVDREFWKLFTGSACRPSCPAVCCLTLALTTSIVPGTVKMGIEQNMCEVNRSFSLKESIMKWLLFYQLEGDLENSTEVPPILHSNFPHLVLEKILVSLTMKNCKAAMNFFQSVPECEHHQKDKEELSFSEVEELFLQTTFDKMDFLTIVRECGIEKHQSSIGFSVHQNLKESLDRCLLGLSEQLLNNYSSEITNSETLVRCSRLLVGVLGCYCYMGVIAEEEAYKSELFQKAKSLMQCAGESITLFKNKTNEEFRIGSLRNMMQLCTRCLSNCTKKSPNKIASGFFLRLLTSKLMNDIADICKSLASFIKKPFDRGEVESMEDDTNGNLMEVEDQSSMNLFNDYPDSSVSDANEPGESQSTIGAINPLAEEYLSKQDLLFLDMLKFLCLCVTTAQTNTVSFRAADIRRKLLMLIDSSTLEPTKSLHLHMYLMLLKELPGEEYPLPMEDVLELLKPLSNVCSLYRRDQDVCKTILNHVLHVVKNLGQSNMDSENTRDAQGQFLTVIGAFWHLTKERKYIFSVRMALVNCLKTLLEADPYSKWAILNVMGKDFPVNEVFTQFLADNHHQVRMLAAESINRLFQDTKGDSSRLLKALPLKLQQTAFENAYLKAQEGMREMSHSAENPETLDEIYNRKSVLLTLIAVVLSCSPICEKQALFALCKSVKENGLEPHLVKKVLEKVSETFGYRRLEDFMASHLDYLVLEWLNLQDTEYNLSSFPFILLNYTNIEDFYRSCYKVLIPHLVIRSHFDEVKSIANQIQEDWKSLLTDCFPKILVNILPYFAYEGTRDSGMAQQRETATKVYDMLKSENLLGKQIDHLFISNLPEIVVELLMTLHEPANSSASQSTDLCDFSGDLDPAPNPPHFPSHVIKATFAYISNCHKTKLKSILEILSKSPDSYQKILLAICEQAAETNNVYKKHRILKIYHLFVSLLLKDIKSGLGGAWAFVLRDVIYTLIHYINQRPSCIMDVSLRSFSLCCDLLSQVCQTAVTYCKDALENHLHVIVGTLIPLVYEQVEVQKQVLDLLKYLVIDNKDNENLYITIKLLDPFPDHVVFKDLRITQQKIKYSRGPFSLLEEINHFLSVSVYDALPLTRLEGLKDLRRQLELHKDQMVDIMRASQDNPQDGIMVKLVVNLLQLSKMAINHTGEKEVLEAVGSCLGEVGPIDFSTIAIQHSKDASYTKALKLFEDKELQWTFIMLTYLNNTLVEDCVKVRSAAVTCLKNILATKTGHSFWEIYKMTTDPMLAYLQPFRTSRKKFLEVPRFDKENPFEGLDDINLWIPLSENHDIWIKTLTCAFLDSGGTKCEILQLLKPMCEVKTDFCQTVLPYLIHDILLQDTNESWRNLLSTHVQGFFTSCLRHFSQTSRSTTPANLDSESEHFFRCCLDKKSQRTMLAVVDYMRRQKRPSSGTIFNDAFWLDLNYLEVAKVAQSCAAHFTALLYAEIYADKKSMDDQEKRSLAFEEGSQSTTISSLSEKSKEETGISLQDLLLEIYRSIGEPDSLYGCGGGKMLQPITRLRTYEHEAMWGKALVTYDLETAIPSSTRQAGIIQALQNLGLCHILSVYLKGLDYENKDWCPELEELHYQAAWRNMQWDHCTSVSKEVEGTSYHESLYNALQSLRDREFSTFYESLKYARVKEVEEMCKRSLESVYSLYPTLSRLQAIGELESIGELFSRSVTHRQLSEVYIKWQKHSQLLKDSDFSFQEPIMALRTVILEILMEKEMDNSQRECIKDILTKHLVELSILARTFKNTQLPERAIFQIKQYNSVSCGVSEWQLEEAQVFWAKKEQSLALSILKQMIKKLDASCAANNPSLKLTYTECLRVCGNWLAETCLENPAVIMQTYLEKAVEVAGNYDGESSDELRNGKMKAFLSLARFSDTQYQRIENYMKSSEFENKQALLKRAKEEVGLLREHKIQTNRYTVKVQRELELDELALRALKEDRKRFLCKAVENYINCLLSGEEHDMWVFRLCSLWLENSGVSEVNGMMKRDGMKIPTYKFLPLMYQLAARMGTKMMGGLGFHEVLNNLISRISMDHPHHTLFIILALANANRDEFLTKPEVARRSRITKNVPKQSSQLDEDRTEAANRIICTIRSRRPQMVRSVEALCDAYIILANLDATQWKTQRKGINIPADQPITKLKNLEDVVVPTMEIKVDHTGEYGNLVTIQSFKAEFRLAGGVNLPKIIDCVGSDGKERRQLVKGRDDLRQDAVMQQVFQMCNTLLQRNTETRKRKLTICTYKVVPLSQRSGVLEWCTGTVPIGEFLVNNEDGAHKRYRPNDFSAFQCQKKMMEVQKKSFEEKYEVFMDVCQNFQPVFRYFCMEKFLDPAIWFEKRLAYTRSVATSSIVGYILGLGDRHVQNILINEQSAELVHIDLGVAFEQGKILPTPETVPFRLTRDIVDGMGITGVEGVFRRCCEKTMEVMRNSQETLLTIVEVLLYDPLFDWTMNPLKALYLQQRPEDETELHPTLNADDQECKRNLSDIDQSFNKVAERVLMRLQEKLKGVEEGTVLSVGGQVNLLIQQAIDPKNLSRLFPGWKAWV

The test concerns the target T1, ATM (Homo sapiens, UniProt Q13315).
T1 construct: detecting phosphorylation of Chk2 in a human non-small cell lung cancer cell line NCI-H460 (ATCC company); host or cells: NCI-H460 human non-small cell lung cancer cells
Put plainly: ATM inhibition test (phosphorylation of Chk2 generated by ionizing radiation, AlphaScreen SureFire). It is filed as cell-based. The note with it: phosphorylated Chk2 in NCI-H460 cells, ionizing radiation 8Gy, 1 hour after test compound treatment; read-out: ATM inhibitory activity. In a few lines:
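Human NCI-H460 lung cancer cells were treated with compound for 1 h, then irradiated at 8Gy and incubated 1 h at 37° C. Phospho-Chk2 was quantified by AlphaScreen SureFire; inhibition % was normalised between irradiated untreated and non-irradiated untreated wells.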
For orientation: Alpha assays give light when donor and acceptor beads are brought close together.
For `CC(CNC1CCCC1)Nc1ccc2c(c1)Sc1cccc(-c3cc(N4CCOCC4)cc(=O)[nH]3)c1S2` (stereo not shown) [Example 1-13-8, 6-(7-((1-(Cyclopentylamino)propan-2-yl)amino)thianthren-1-yl)-4-morpholino pyridin-2 (1H)-one], the IC50 lay within 0.1 to 0.5 µM.

As for `CCN1CCC(C(Nc2ccc3c(c2)Sc2cccc(-c4cc(N5CCOCC5)cc(=O)[nH]4)c2S3)c2ccc(C)cn2)CC1` (stereo not shown) [Example 1-56-1, 6-(7-(((1-ethylpiperidin-4-yl)(5-methylpyridin-2-yl)methyl)amino)thianthren-1-yl)-4-morpholinopyridin-2(1H)-one], the IC50 is below 0.1 µM.

Regarding `CCC(C)C(Nc1ccc2c(c1)Sc1cccc(-c3cc(N4CCOCC4)cc(=O)[nH]3)c1S2)c1ccc(C)cn1` (stereo not shown) [Example 1-12-122, 6-(7-((2-Methyl-1-(5-methylpyridin-2-yl)butyl)amino)thianthren-1-yl)-4-morpholino pyridin-2(1H)-one], the IC50 fell in the range of 0.1 to 0.5 µM.

For `Cc1cc(CNc2ccc3c(c2)Sc2cccc(-c4cc(N5CCOCC5)cc(=O)[nH]4)c2O3)ccn1` [Example 4-4-3, 6-(8-(((2-Methylpyridin-4-yl)methyl)amino)phenoxathiin-4-yl)-4-morpholino pyridin-2 (1H)-one], the IC50 lay within 0.1 to 0.5 µM.

As to `CCOC(=O)c1ccc(CNc2ccc3c(c2)Sc2cccc(-c4cc(N5CCOCC5)cc(=O)[nH]4)c2S3)nc1` [Example 1-12-112, Ethyl 6-(((6-(4-morpholino-6-oxo-1,6-dihydropyridin-2-yl)thianthren-2-yl)amino)methyl)nicotinate], the IC50 lay within 0.1 to 0.5 µM.

As for `CCOC(=O)c1cccc(CNc2ccc3c(c2)Cc2cccc(-c4cc(N5CCOCC5)cc(=O)[nH]4)c2O3)n1` [Example 2-14-73, Ethyl 6-(((5-(4-morpholino-6-oxo-1,6-dihydropyridin-2-yl)-9H-xanthen-2-yl)amino)methyl)picolinate], the IC50 lay within 0.1 to 0.5 µM.

Consider `Nc1ccc2c(c1)Cc1c(F)ccc(-c3cc(N4CCOCC4)cc(=O)[nH]3)c1O2` [Example 2-43, 6-(7-Amino-1-fluoro-9H-xanthen-4-yl)-4-morpholinopyridin-2(1H)-one], for which the IC50 fell in the range of 0.5 to 2 µM.

Turning to `Cc1cnc(C(CCN2CCC2)Nc2ccc3c(c2)Sc2cccc(-c4cc(N5CCOCC5)cc(=O)[nH]4)c2S3)cn1` (single isomer, unassigned) [Example 1-51-11, 6-(7-((3-(Azetidin-1-yl)-1-(5-methylpyrazin-2-yl)propyl)amino)thianthren-1-yl)-4-morpholino pyridin-2(1H)-one], the IC50 was below 0.1 µM.

Regarding `Nc1ncccc1CNc1ccc2c(c1)Cc1cccc(-c3cc(N4CCOCC4)cc(=O)[nH]3)c1O2` [Example 2-2-21, 6-(7-(((2-Aminopyridin-3-yl)methyl)amino)-9H-xanthen-4-yl)-4-morpholino pyridin-2(1H)-one], the IC50 was in the range of 0.1 to 0.5 µM.

As to `CC1CC(C)CN(CC(CO)Nc2ccc3c(c2)Sc2cccc(-c4cc(N5CCOCC5)cc(=O)[nH]4)c2S3)C1` (stereo not shown) [Example 1-37-5, 6-(7-((1-(3,5-Dimethylpiperidin-1-yl)-3-hydroxypropan-2-yl)amino)thianthren-1-yl)-4-morpholino pyridin-2 (1H)-one], the IC50 was 0.1 to 0.5 µM.

For `O=C(CN1C2CCC1COC2)Nc1ccc2c(c1)Sc1cccc(-c3cc(N4CCOCC4)cc(=O)[nH]3)c1S2` [Example 1-7-2, 2-(3-Oxa-8-azabicyclo[3.2.1]octan-8-yl)-N-(6-(4-morpholino-6-oxo-1,6-dihydropyridin-2-yl)thianthren-2-yl)acetamide], the IC50 was in the range of 0.1 to 0.5 µM.

Take `Cc1ccncc1CNc1ccc2c(c1)Cc1cccc(-c3cc(N4CCOCC4)cc(=O)[nH]3)c1O2` [Example 2-14-5, 6-(7-(((4-Methylpyridin-3-yl)methyl)amino)-9H-xanthen-4-yl)-4-morpholino pyridin-2(1H)-one]: the IC50 was in the range of 0.1 to 0.5 µM.

Consider `O=c1cc(N2CCOCC2)cc(-c2cccc3c2Oc2ccc(NC4CCN(CC(F)(F)F)CC4)cc2C3)[nH]1` [Example 2-34, 4-Morpholino-6-(7-((1-(2,2,2-trifluoroethyl)piperidin-4-yl)amino)-9H-xanthen-4-yl)pyridin-2(1H)-one], for which the IC50 is 0.1 to 0.5 µM.

As for `CNCc1cccc(C(C)Nc2ccc3c(c2)Sc2cccc(-c4cc(N5CCOCC5)cc(=O)[nH]4)c2S3)n1` (stereo not shown) [Example 1-20-8, 6-(7-((1-(6-((Methylamino)methyl)pyridin-2-yl)ethyl)amino)thianthren-1-yl)-4-morpholino pyridin-2(1H)-one], the IC50 lay within 0.1 to 0.5 µM.

In the case of `Cc1cncc(C(C)Nc2ccc3c(c2)Cc2cccc(-c4cc(N5CCOCC5)cc(=O)[nH]4)c2O3)c1` (single isomer, unassigned) [Example 2-14-88-1, 6-(7-((1-(5-methylpyridin-3-yl)ethyl)amino)-9H-xanthen-4-yl)-4-morpholinopyridin-2(1H)-one], the IC50 fell in the range of 0.1 to 0.5 µM.

As to `CC(C)Oc1ccc(CCN2CCC(Nc3ccc4c(c3)Cc3cccc(-c5cc(N6CCOCC6)cc(=O)[nH]5)c3O4)CC2)cc1` [Example 2-30-18, 6-(7-((1-(4-Isopropoxyphenethyl)piperidin-4-yl)amino)-9H-xanthen-4-yl)-4-morpholino pyridin-2(1H)-one], the IC50 was 0.1 to 0.5 µM.

Consider `CCC(Nc1ccc2c(c1)Cc1cccc(-c3cc(N4CCOCC4)cc(=O)[nH]3)c1O2)c1cncc(OC)c1` (single isomer, unassigned) [Example 2-37, 6-(7-((1-(5-methoxypyridin-3-yl)propyl)amino)-9H-xanthen-4-yl)-4-morpholinopyridin-2(1H)-one], for which the IC50 lay within 0.1 to 0.5 µM.

Take `CC(Nc1ccc2c(c1)Cc1cccc(-c3cc(N4CCOCC4)cc(=O)[nH]3)c1O2)c1ccnc(C#N)n1` (stereo not shown) [Example 2-14-58, 4-(1-((5-(4-Morpholino-6-oxo-1,6-dihydropyridin-2-yl)-9H-xanthen-2-yl)amino)ethyl)pyrimidine-2-carbonitrile]: the IC50 fell in the range of 0.1 to 0.5 µM.

On to `N#Cc1ccc(CCN2CCC(Nc3ccc4c(c3)Cc3cccc(-c5cc(N6CCOCC6)cc(=O)[nH]5)c3O4)CC2)cc1` [Example 2-30-19, 4-(2-(4-((5-(4-Morpholino-6-oxo-1,6-dihydropyridin-2-yl)-9H-xanthen-2-yl)amino)piperidin-1-yl)ethyl) benzonitrile], for which the IC50 lay in the range of 0.5 to 2 µM.

Take `CN1CCN(c2cccc(CNc3ccc4c(c3)Sc3cccc(-c5cc(N6CCOCC6)cc(=O)[nH]5)c3S4)n2)CC1` [Example 1-12-33, 6-(7-(((6-(4-Methylpiperazin-1-yl)pyridin-2-yl)methyl)amino)thianthren-1-yl)-4-morpholino pyridin-2 (1H)-one]: the IC50 was in the range of 0.1 to 0.5 µM.

As to `O=c1cc(N2CCOCC2)cc(-c2cccc3c2Oc2ccc(NC4CCN(c5cccnc5)CC4)cc2C3)[nH]1` [Example 2-2-28, 4-Morpholino-6-(7-((l-(pyridin-3-yl)piperidin-4-yl)amino)-9H-xanthen-4-yl) pyridin-2(1H)-one], the IC50 lay in the range of 0.1 to 0.5 µM.

Consider `CCCCN1CCC(Nc2ccc3c(c2)Cc2cccc(-c4cc(N5CCOCC5)cc(=O)[nH]4)c2O3)C1` (stereo not shown) [Example 2-19-8, 6-(7-((1-Butylpyrrolidin-3-yl)amino)-9H-xanthen-4-yl)-4-morpholinopyridin-2(1H)-one], for which the IC50 lay in the range of 0.1 to 0.5 µM.

Consider `Cc1ccc(CNc2ccc3c(c2)Sc2cccc(-c4cc(N5CCOCC5)cc(=O)[nH]4)c2S3)s1` [Example 1-12-57, 6-(7-(((5-Methylthiophen-2-yl)methyl)amino)thianthren-1-yl)-4-morpholino pyridin-2 (1H)-one], for which the IC50 was in the range of 0.1 to 0.5 µM.

Consider `CC(Nc1ccc2c(c1)Sc1cccc(-c3cc(N4CCOCC4)cc(=O)[nH]3)c1S2)c1cc(Cl)ncn1` (stereo not shown) [Example 1-12-83, 6-(7-((1-(6-Chloropyrimidin-4-yl)ethyl)amino)thianthren-1-yl)-4-morpholino pyridin-2 (1H)-one], for which the IC50 was in the range of 0.1 to 0.5 µM.

In the case of `O=c1cc(N2CCOCC2)cc(-c2cccc3c2Sc2ccc(NCc4cnccn4)cc2C3)[nH]1` [Example 3-8-5, 4-Morpholino-6-(7-((pyrazin-2-ylmethyl)amino)-9H-thioxanthen-4-yl)pyridin-2 (1H)-one], the IC50 fell in the range of 0.5 to 2 µM.

On to `Cc1ccc(CNc2ccc3c(c2)Cc2cccc(-c4cc(N5CCOCC5)cc(=O)[nH]4)c2O3)cn1` [Example 2-2-2, 6-(7-(((6-Methylpyridin-3-yl)methyl)amino)-9H-xanthen-4-yl)-4-morpholino pyridin-2 (1H)-one], for which the IC50 is below 0.1 µM.

In the case of `CC(CN(C)C1CCCCC1)Nc1ccc2c(c1)Sc1cccc(-c3cc(N4CCOCC4)cc(=O)[nH]3)c1S2` (stereo not shown) [Example 1-13-9, 6-(7-((1-(Cyxlohexyl(methyl)amino)propan-2-yl)amino)thianthren-1-yl)-4-morpholino pyridin-2(1H)-one], the IC50 is 0.1 to 0.5 µM.

With `COc1cc(CNc2ccc3c(c2)Sc2cccc(-c4cc(N5CCOCC5)cc(=O)[nH]4)c2S3)cnc1OC` [Example 1-12-7, 6-(7-(((5,6-Dimethoxypyridin-3-yl)methyl)amino)thianthren-1-yl)-4-morpholino pyridin-2(1H)-one], the IC50 lay in the range of 0.1 to 0.5 µM.

For `Cc1ccc(CNc2ccc3c(c2)Cc2ccnc(-c4cc(N5CCOCC5)cc(=O)[nH]4)c2O3)cn1` [Example 2-42-4, 6-(7-(((6-Methylpyridin-3-yl)methyl)amino)-5H-chromeno[2,3-c]pyridin-1-yl)-4-morpholinopyridin-2(1H)-one], the IC50 was in the range of 0.1 to 0.5 µM.

For the compound `O=c1cc(N2CCOCC2)cc(-c2cccc3c2Oc2ccc(NC4CCCNC4)cc2S3)[nH]1` (stereo not shown) [Example 4-5, 4-morpholino-6-(8-(piperidin-3-ylamino)phenoxathiin-4-yl)pyridin-2(1H)-one], the IC50 was in the range of 0.5 to 2 µM.

On to `O=c1cc(N2CCOCC2)cc(-c2cccc3c2Sc2ccc(NCCN4CCC(F)(F)C4)cc2S3)[nH]1` [Example 1-10-2, 6-(7-((2-(3,3-Difluoropyrrolidin-1-yl)ethyl)amino)thianthren-1-yl)-4-morpholinopyridin-2(1H)-one], for which the IC50 was in the range of 0.1 to 0.5 µM.
